Here are results for one molecule from ChEMBL document CHEMBL5038601, “Carbohydrate-Based NK1R Antagonists with Broad-Spectrum Anticancer Activity” (J Med Chem, 2021).

The test system of experiment [1] is A549. Description: Inhibition of glycolysis in human A549 cells assessed as reduction in glucose consumption incubated for 8 hrs by colorimetric-oxidase mediator analysis. In kind it is functional, cell-based.
The subject of experiment [2] is A549. Description: Inhibition of glycolysis in human A549 cells assessed as reduction in lactate production incubated for 8 hrs by colorimetric-oxidase mediator analysis. It is filed as functional, cell-based.

Calls of active or inactive are those of the source. The rule behind the calls is not given here.

For `O=C(O)C(Cl)Cl`, the inhibition result in experiment [1] and in experiment [2] was “Active” in each case.
